Measurements published in US20120255051A1, “HERBICIDE TOLERANT PLANTS” (priority 2009, published 2012).
Values joined by “and” are separate entries in the source; they are usually repeats but may differ in a detail not shown here. Equal values may be shown once.

Legend:
Type in all cases: in vivo, Brassica napus
[1] = system: Brassica plants comprising mutant AHAS alleles; assay: Field trial, post-emergence treatment (0, 10, 20 g a.i./ha), location A: PPTOX and VIG1 scores; settings: for vigor1 (VIG1) score, Av: 7 days after spray
Protocol: The correlation between the presence of full knockout and missense AHAS genes in Brassica plants on plant growth and herbicide tolerance of the Brassica plants in the field on location A was also tested upon post-emergence herbicide treatment. The field setup was the same as for the pre-planting field trial. Post-emergence treatment was carried out on the 2-4 leaf stage with a rate of 0 (treatment A), 10 (treatment B), 20 (treatment C) g a.i./ha of thiencarbazone methyl. The phytotoxicity (PPTOX) and vigor1 (VIG1; vigor scores 7 days after herbicide spray) were determined as described above. The average values (Av) and standard deviations (SD) of the scores for the different parameters are represented in Table 9.

[2] = system: Brassica plants comprising mutant AHAS alleles; assay: Greenhouse pre-planting application (20 g a.i./ha): vigor scores; settings: for vigor score Av, pre-planting (2, 3 and 4 weeks after treatment): 20 g a.i./ha
Protocol: In another experiment, the effect of combining AHAS full knockouts with AHAS missense herbicide tolerant alleles on tolerance to thiencarbazone-methyl pre-planting application and thiencarbazone-methyl post-emergence spraying was tested in the greenhouse. To this end, the Brassica plants identified in Example 1 and 2 were backcrossed two times with an elite parent line, and subsequently selfed twice to obtain homozygous plants (BC2S2). Treatment pre-planting was carried out on the soil just after sowing with a dose of 20 g a.i./ha of thiencarbazone methyl. For assessment of vigor scores, plants were evaluated on a scale of 1 to 9, where 1=dead, 3=poor, 6=some aberrant phenotype and 9=vigorous. The vigor scores are an average of the scores taken at 2, 3 and 4 weeks after treatment. Treatment post-emergence at the first leaf stage was carried out with a dose of 10 g a.i./ha of thiencarbazone-methyl. The vigor scores are an average of the scores taken 1, 2 and 3 weeks after the treatment. The average values (Av) and standard deviations (SD) of the vigor scores are represented in Table 6.

[3] = system: Brassica plants comprising mutant AHAS alleles; assay: Greenhouse post-emergence spray test (5 g a.i./ha): survival and plant type rating; parameters: key to number of surviving plants in plant type 4 / number of surviving plants in plant type 5 / number of surviving plants in plant type 2: 5: normal (corresponding to wildtype unsprayed phenotype); 4: normal height, some side branching, normal leaves; 3: intermediate height, intermediate side branching, normal leaves; 2: short, severe side branching (“bushy”), some leave malformations; 1: short, severe side branching (“bushy”), severe leave malformations; settings: 5 g a.i./ha post-emergence
Protocol: The correlation between the presence of missense and/or full knockout AHAS alleles in a Brassica plant grown in the greenhouse and tolerance to thiencarbazone-methyl was determined as follows. Of the Brassica plants identified in Example 1 and 2, crosses were made to obtain plants comprising both mutant AHAS1 and AHAS3 alleles (F1), which were subsequently backcrossed and selfed (BC1S1). Single gene AHAS missense mutants were backcrossed twice (BC2). These BC1S1 (representing all possible genotype combinations), as well as BC2 single AHAS gene mutant plants (50%+/+, 50%+/−), were sown in a greenhouse. Treatment post-emergence at the 1-2 leaf stage was carried out with a dose of 5 g a.i./ha of thiencarbazone-methyl and surviving plants were transplanted to 9 cm pots 10 days after spraying. The plants were evaluated for phenotype (height, side branching and leave morphology) 20 days after transplantation on scale of 5 to 1, where; type 5=normal (corresponding to wildtype unsprayed phenotype); type 4=normal height, some side branching, normal leaves; type 3=intermediate height, intermediate side branching, normal leaves; type 2=short, severe side branching (“bushy”), some leave malformations; type 1=short, severe side branching (“bushy”), severe leave malformations (Table 4).

[4] = Elite parent line plants, 10 g a.i./ha (treatment B) post-emergence
[5] = Elite parent line plants, 20 g a.i./ha (treatment C) post-emergence
[6] = plants AHAS1 HETO108 / AHAS3 HETO104, 10 g a.i./ha (treatment B) post-emergence
[7] = plants AHAS1 HETO108 / AHAS3 HETO104, 20 g a.i./ha (treatment C) post-emergence
[8] = plants AHAS1 HETO108 / AHAS3 HETO111, 10 g a.i./ha (treatment B) post-emergence
[9] = plants AHAS1 HETO108 / AHAS3 HETO111, 20 g a.i./ha (treatment C) post-emergence
[10] = plants AHAS1 HETO108 / AHAS3 WT, 10 g a.i./ha (treatment B) post-emergence
[11] = plants AHAS1 HETO108 / AHAS3 WT, 20 g a.i./ha (treatment C) post-emergence
[12] = plants AHAS1 HETO112 / AHAS3 HETO111, 10 g a.i./ha (treatment B) post-emergence
[13] = plants AHAS1 HETO112 / AHAS3 HETO111, 20 g a.i./ha (treatment C) post-emergence
[14] = plants AHAS1 HETO112 / AHAS3 WT, 10 g a.i./ha (treatment B) post-emergence
[15] = plants AHAS1 HETO112 / AHAS3 WT, 20 g a.i./ha (treatment C) post-emergence
[16] = plants AHAS1 WT / AHAS3 HETO104, 10 g a.i./ha (treatment B) post-emergence
[17] = plants AHAS1 WT / AHAS3 HETO104, 20 g a.i./ha (treatment C) post-emergence
[18] = plants AHAS1 WT / AHAS3 HETO111, 10 g a.i./ha (treatment B) post-emergence
[19] = plants AHAS1 WT / AHAS3 HETO111, 20 g a.i./ha (treatment C) post-emergence
[20] = plants AHAS1 WT / AHAS3 WT, 10 g a.i./ha (treatment B) post-emergence
[21] = plants AHAS1 WT / AHAS3 WT, 20 g a.i./ha (treatment C) post-emergence
[22] = BC1S1 HETO108/HETO102, 204 sown, 201 germinated
[23] = BC1S1 HETO108/HETO103, 204 sown, 199 germinated
[24] = BC1S1 HETO108/HETO104, 204 sown, 200 germinated
[25] = BC1S1 HETO112/HETO111, 204 sown, 204 germinated
[26] = BC2 HETO108, 51 sown, 50 germinated
[27] = BC2 HETO111, 51 sown, 49 germinated

## COC(=O)c1csc(C)c1S(=O)(=O)NC(=O)n1nc(OC)n(C)c1=O [thiencarbazone-methyl, methyl 4-[(4,5-dihydro-3-methoxy-4-methyl-5-oxo-1H-1,2,4-triazol-1-yl)carbonylsulfamoyl]-5-methylthiophene-3-carboxylate]
[1]; [4]
  phytotoxicity (PPTOX) score, Av: 1.00
  vigor1 (VIG1) score, Av: 2.33
[1]; [5]
  phytotoxicity (PPTOX) score, Av: 1.00
  vigor1 (VIG1) score, Av: 2.33
[1]; [6]
  phytotoxicity (PPTOX) score, Av: 5.00
  vigor1 (VIG1) score, Av: 5.00
[1]; [7]
  phytotoxicity (PPTOX) score, Av: 4.00
  vigor1 (VIG1) score, Av: 4.00
[1]; [8]
  phytotoxicity (PPTOX) score, Av: 6.67
  vigor1 (VIG1) score, Av: 6.67
[1]; [9]
  phytotoxicity (PPTOX) score, Av: 6.00
  vigor1 (VIG1) score, Av: 6.00
[1]; [10]
  phytotoxicity (PPTOX) score, Av: 6.00 and 5.67
  vigor1 (VIG1) score, Av: 6.00 and 5.67
[1]; [11]
  phytotoxicity (PPTOX) score, Av: 4.33
  vigor1 (VIG1) score, Av: 4.67 and 4.33
[1]; [12]
  phytotoxicity (PPTOX) score, Av: 5.00
  vigor1 (VIG1) score, Av: 5.00
[1]; [13]
  phytotoxicity (PPTOX) score, Av: 4.67
  vigor1 (VIG1) score, Av: 4.67
[1]; [14]
  phytotoxicity (PPTOX) score, Av: 1.00
  vigor1 (VIG1) score, Av: 2.00
[1]; [15]
  phytotoxicity (PPTOX) score, Av: 1.00
  vigor1 (VIG1) score, Av: 1.67
[1]; [16]
  phytotoxicity (PPTOX) score, Av: 1.00
  vigor1 (VIG1) score, Av: 1.67
[1]; [17]
  phytotoxicity (PPTOX) score, Av: 1.00
  vigor1 (VIG1) score, Av: 1.67
[1]; [18]
  phytotoxicity (PPTOX) score, Av: 5.33 and 5.67
  vigor1 (VIG1) score, Av: 5.33
[1]; [19]
  phytotoxicity (PPTOX) score, Av: 4.67
  vigor1 (VIG1) score, Av: 4.67
[1]; [20]
  phytotoxicity (PPTOX) score, Av: 1.00
  vigor1 (VIG1) score, Av: 1.67
[1]; [21]
  phytotoxicity (PPTOX) score, Av: 1.00
  vigor1 (VIG1) score, Av: 2.00
[2]; AHAS1 +/+, AHAS3 +/+ (HETO108+HETO104 series)
  vigor score Av, pre-planting (2, 3 and 4 weeks after treatment): 1.3
[2]; AHAS1 +/+, AHAS3 +/+ (HETO108+HETO111 series)
  vigor score Av, pre-planting (2, 3 and 4 weeks after treatment): 1.4
[2]; AHAS1 +/+, AHAS3 +/+ (HETO112+HETO111 series)
  vigor score Av, pre-planting (2, 3 and 4 weeks after treatment): 1.4
[2]; AHAS1 +/+, AHAS3 HETO104/HETO104
  vigor score Av, pre-planting (2, 3 and 4 weeks after treatment): 1.3
[2]; AHAS1 +/+, AHAS3 HETO111/HETO111 (HETO108+HETO111 series)
  vigor score Av, pre-planting (2, 3 and 4 weeks after treatment): 5.2
[2]; AHAS1 +/+, AHAS3 HETO111/HETO111 (HETO112+HETO111 series)
  vigor score Av, pre-planting (2, 3 and 4 weeks after treatment): 4.8
[2]; AHAS1 HETO108/HETO108, AHAS3 +/+ (HETO108+HETO104 series)
  vigor score Av, pre-planting (2, 3 and 4 weeks after treatment): 5.3
[2]; AHAS1 HETO108/HETO108, AHAS3 +/+ (HETO108+HETO111 series)
  vigor score Av, pre-planting (2, 3 and 4 weeks after treatment): 4.4
[2]; AHAS1 HETO108/HETO108, AHAS3 HETO104/HETO104
  vigor score Av, pre-planting (2, 3 and 4 weeks after treatment): 6.1
[2]; AHAS1 HETO108/HETO108, AHAS3 HETO111/HETO111
  vigor score Av, pre-planting (2, 3 and 4 weeks after treatment): 7.6
[2]; AHAS1 HETO112/HETO112, AHAS3 +/+
  vigor score Av, pre-planting (2, 3 and 4 weeks after treatment): 1.4
[2]; AHAS1 HETO112/HETO112, AHAS3 HETO111/HETO111
  vigor score Av, pre-planting (2, 3 and 4 weeks after treatment): 5.6
[2]; Elite parent line treated
  vigor score Av, pre-planting (2, 3 and 4 weeks after treatment): 1.8
[2]; pre-planting treatment, greenhouse
  thiencarbazone-methyl tolerance of plants homozygous for a missense allele and a full knock-out allele, versus missense allele with other AHAS gene homozygous wild-type: higher
[3]; [22]
  number of surviving plants in plant type 1: 108
  number of surviving plants in plant type 2: 34
  number of surviving plants in plant type 3: 21
  number of surviving plants in plant type 4: 1
  number of surviving plants in plant type 5: 0
  number of surviving plants transplanted after spraying (trans): 169
[3]; [23]
  number of surviving plants in plant type 1: 88
  number of surviving plants in plant type 2: 18
  number of surviving plants in plant type 3: 41
  number of surviving plants in plant type 4: 4
  number of surviving plants in plant type 5: 0
  number of surviving plants transplanted after spraying (trans): 151
[3]; [24]
  number of surviving plants in plant type 1: 66
  number of surviving plants in plant type 2: 18
  number of surviving plants in plant type 3: 28
  number of surviving plants in plant type 4: 2
  number of surviving plants transplanted after spraying (trans): 115
[3]; BC1S1 HETO108/HETO104, 204 sown, 200 germinated (probably missed during spraying)
  number of surviving plants in plant type 5: 1
[3]; [25]
  number of surviving plants in plant type 1: 94
  number of surviving plants in plant type 2: 23
  number of surviving plants in plant type 3: 35
  number of surviving plants in plant type 4: 0
  number of surviving plants in plant type 5: 0
  number of surviving plants transplanted after spraying (trans): 152
[3]; [26]
  number of surviving plants in plant type 1: 20
  number of surviving plants in plant type 2: 2
  number of surviving plants in plant type 3: 0
  number of surviving plants in plant type 4: 0
  number of surviving plants in plant type 5: 0
  number of surviving plants transplanted after spraying (trans): 22
[3]; [27]
  number of surviving plants in plant type 1: 22
  number of surviving plants in plant type 2: 0
  number of surviving plants in plant type 3: 0
  number of surviving plants in plant type 4: 0
  number of surviving plants in plant type 5: 0
  number of surviving plants transplanted after spraying (trans): 25
[3]; wt, 51 sown, 51 germinated
  number of surviving plants in plant type 1: 0
  number of surviving plants in plant type 2: 0
  number of surviving plants in plant type 3: 0
  number of surviving plants in plant type 4: 0
  number of surviving plants in plant type 5: 0
  number of surviving plants transplanted after spraying (trans): 0
